# According to patent US8530493B2, “Indolopyridines as Eg5 kinesin modulators” (4SC AG, priority 2006, dated 2013):
# System: RKO p21 uninduced (proliferating) colon adenocarcinoma cells
# Test: Alamar Blue cell viability assay, RKO p21 uninduced (proliferating)
# Assay type: cell-based
# Details: Homo sapiens, Table B3, anti-proliferative/cytotoxic activity, 72 hours, read-out: −log EC50 RKO p21 uninduced (proliferating) (converted)
# Outline: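 Viability read by Alamar Blue fluorescence (ex 544, em 590 nm), normalised to untreated wells, after 72 h, 37° C, 5% CO2 compound exposure in triplicate. Cells were uninduced (no Ponasterone A), proliferating RKO colon carcinoma p27 or p21 subclones in DMEM with 10% FCS; values are −log EC50 (mol/l).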
row,SMILES,EC50 [µM]
1,"COc1ccc2[nH]c3c(c2c1)C[C@@]1(C)C(=O)N(CCCNCC(C)C)C(=O)N1[C@@H]3c1cccc(O)c1 [Example 534, (3aS,10R)-10-(3-Hydroxy-phenyl)-2-(3-isobutylamino-propyl)-6-methoxy-3a-methyl-3a,4,9,10-tetrahydro-2,9,10a-triaza-cyclopenta[b]fluorene-1,3-dione]",≤ 0.0398
2,"COc1ccc2[nH]c3c(c2c1)C[C@@]1(C)C(=O)N(CCCNCC2CC2)C(=O)N1[C@@H]3c1cccc(O)c1 [Example 535, (3aS,10R)-2-[3-(Cyclopropylmethyl-amino)-propyl]-10-(3-hydroxy-phenyl)-6-methoxy-3a-methyl-3a,4,9,10-tetrahydro-2,9,10a-triaza-cyclopenta[b]fluorene-1,3-dione]",≤ 0.0398
3,"COc1ccc2[nH]c3c(c2c1)C[C@@]1(C)C(=O)N(CCCNCCO)C(=O)N1[C@@H]3c1cccc(O)c1 [Example 536, (3aS,10R)-2-[3-(2-Hydroxy-ethylamino)-propyl]-10-(3-hydroxy-phenyl)-6-methoxy-3a-methyl-3a,4,9,10-tetrahydro-2,9,10a-triaza-cyclopenta[b]fluorene-1,3-dione]",≤ 0.0398
4,"COc1ccc2[nH]c3c(c2c1)C[C@@]1(C)C(=O)N(CCCNC2CC2)C(=O)N1[C@@H]3c1cccc(O)c1 [Example 537, (3aS,10R)-2-(3-Cyclopropylamino-propyl)-10-(3-hydroxy-phenyl)-6-methoxy-3a-methyl-3a,4,9,10-tetrahydro-2,9,10a-triaza-cyclopenta[b]fluorene-1,3-dione]",≤ 0.0398
5,"COc1ccc2[nH]c3c(c2c1)C[C@@]1(C)C(=O)N(CCCNC(C)(C)C)C(=O)N1[C@@H]3c1cccc(O)c1 [Example 538, (3aS,10R)-2-(3-tert-Butylamino-propyl)-10-(3-hydroxy-phenyl)-6-methoxy-3a-methyl-3a,4,9,10-tetrahydro-2,9,10a-triaza-cyclopenta[b]fluorene-1,3-dione]",≤ 0.0398
6,"C#CCNCCCN1C(=O)N2[C@H](c3cccc(O)c3)c3[nH]c4ccc(OC)cc4c3C[C@@]2(C)C1=O [Example 539, (3aS,10R)-10-(3-Hydroxy-phenyl)-6-methoxy-3a-methyl-2-(3-prop-2-ynylamino-propyl)-3a,4,9,10-tetrahydro-2,9,10a-triaza-cyclopenta[b]fluorene-1,3-dione]",≤ 0.0398
7,"COc1ccc2[nH]c3c(c2c1)C[C@@]1(C)C(=O)N(CCCN(C)C)C(=O)N1[C@@H]3c1cccc(O)c1 [Example 540, (3aS,10R)-2-(3-Dimethylamino-propyl)-10-(3-hydroxy-phenyl)-6-methoxy-3a-methyl-3a,4,9,10-tetrahydro-2,9,10a-triaza-cyclopenta[b]fluorene-1,3-dione]",≤ 0.0398
8,"CCN(C)CCCN1C(=O)N2[C@H](c3cccc(O)c3)c3[nH]c4ccc(OC)cc4c3C[C@@]2(C)C1=O [Example 541, (3aS,10R)-2-[3-(Ethyl-methyl-amino)-propyl]-10-(3-hydroxy-phenyl)-6-methoxy-3a-methyl-3a,4,9,10-tetrahydro-2,9,10a-triaza-cyclopenta[b]fluorene-1,3-dione]",≤ 0.0398
9,"COc1ccc2[nH]c3c(c2c1)C[C@@]1(C)C(=O)N(CCCN(C)CCO)C(=O)N1[C@@H]3c1cccc(O)c1 [Example 542, (3aS,10R)-2-{3-[(2-Hydroxy-ethyl)-methyl-amino]-propyl}-10-(3-hydroxy-phenyl)-6-methoxy-3a-methyl-3a,4,9,10-tetrahydro-2,9,10a-triaza-cyclopenta[b]fluorene-1,3-dione]",≤ 0.0398
10,"CCN(CCO)CCCN1C(=O)N2[C@H](c3cccc(O)c3)c3[nH]c4ccc(OC)cc4c3C[C@@]2(C)C1=O [Example 543, (3aS,10R)-2-{3-[Ethyl-(2-hydroxy-ethyl)-amino]-propyl}-10-(3-hydroxy-phenyl)-6-methoxy-3a-methyl-3a,4,9,10-tetrahydro-2,9,10a-triaza-cyclopenta[b]fluorene-1,3-dione]",≤ 0.0398
